Tested on: HUVEC/MSC spheroids viability
Assay: Human HUVEC/MSC cell line growth inhibition [KRAS2];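 as to viability, T/C: percent of DMSO vehicle control luminescence so 100% = untreated viability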
Details: for IC50: curve of first compound; for viability, T/C: stronger effect = lower value
Procedure, shortened: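 Spheroids of human HUVEC plus MSCs, without tumor cells, were treated with single agents and combinations. Each drug was tested in half-log steps down from near its clinical Cmax, or from 10 microM when Cmax was unknown. HUVEC and hMSC were used at passage </=5.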

[1] = second compound 0.0316 µM, first compound 0.000316 µM
[2] = second compound 0.0316 µM, first compound 0.001 µM
[3] = second compound 0.0316 µM, first compound 0.00316 µM
[4] = second compound 0.0316 µM, first compound 0.01 µM
[5] = second compound 0.0316 µM, first compound 0.0316 µM
[6] = second compound 0.0316 µM, first compound 0.1 µM
[7] = second compound 0.1 µM, first compound 0.000316 µM
[8] = second compound 0.1 µM, first compound 0.001 µM
[9] = second compound 0.1 µM, first compound 0.00316 µM
[10] = second compound 0.1 µM, first compound 0.01 µM
[11] = second compound 0.1 µM, first compound 0.0316 µM
[12] = second compound 0.1 µM, first compound 0.1 µM
[13] = second compound 0.316 µM, first compound 0.000316 µM
[14] = second compound 0.316 µM, first compound 0.001 µM
[15] = second compound 0.316 µM, first compound 0.00316 µM
[16] = second compound 0.316 µM, first compound 0.01 µM
[17] = second compound 0.316 µM, first compound 0.0316 µM
[18] = second compound 0.316 µM, first compound 0.1 µM
[19] = second compound 1 µM, first compound 0.000316 µM
[20] = second compound 1 µM, first compound 0.001 µM
[21] = second compound 1 µM, first compound 0.00316 µM
[22] = second compound 1 µM, first compound 0.01 µM
[23] = second compound 1 µM, first compound 0.0316 µM
[24] = second compound 1 µM, first compound 0.1 µM
[25] = second compound 3.16 µM, first compound 0.000316 µM
[26] = second compound 3.16 µM, first compound 0.001 µM
[27] = second compound 3.16 µM, first compound 0.00316 µM
[28] = second compound 3.16 µM, first compound 0.01 µM
[29] = second compound 3.16 µM, first compound 0.0316 µM
[30] = second compound 3.16 µM, first compound 0.1 µM
[31] = second compound 10 µM, first compound 0.000316 µM
[32] = second compound 10 µM, first compound 0.001 µM
[33] = second compound 10 µM, first compound 0.00316 µM
[34] = second compound 10 µM, first compound 0.01 µM
[35] = second compound 10 µM, first compound 0.0316 µM
[36] = second compound 10 µM, first compound 0.1 µM
[37] = second compound 0.0316 µM, first compound 0.316 µM
[38] = second compound 0.0316 µM, first compound 1 µM
[39] = second compound 0.0316 µM, first compound 3.16 µM
[40] = second compound 0.0316 µM, first compound 10 µM
[41] = second compound 0.1 µM, first compound 0.316 µM
[42] = second compound 0.1 µM, first compound 1 µM
[43] = second compound 0.1 µM, first compound 3.16 µM
[44] = second compound 0.1 µM, first compound 10 µM
[45] = second compound 0.316 µM, first compound 0.316 µM
[46] = second compound 0.316 µM, first compound 1 µM
[47] = second compound 0.316 µM, first compound 3.16 µM
[48] = second compound 0.316 µM, first compound 10 µM
[49] = second compound 1 µM, first compound 0.316 µM
[50] = second compound 1 µM, first compound 1 µM
[51] = second compound 1 µM, first compound 3.16 µM
[52] = second compound 1 µM, first compound 10 µM
[53] = second compound 3.16 µM, first compound 0.316 µM
[54] = second compound 3.16 µM, first compound 1 µM
[55] = second compound 3.16 µM, first compound 3.16 µM
[56] = second compound 3.16 µM, first compound 10 µM
[57] = second compound 10 µM, first compound 0.316 µM
[58] = second compound 10 µM, first compound 1 µM
[59] = second compound 10 µM, first compound 3.16 µM
[60] = second compound 10 µM, first compound 10 µM

Compound `Cn1ncnc1[C@H]1c2n[nH]c(=O)c3cc(F)cc(c23)N[C@@H]1c1ccc(F)cc1` + C=CC(=O)N1CCN(c2nc(=O)n(-c3c(C)ccnc3C(C)C)c3nc(-c4c(O)cccc4F)c(F)cc23)C(C)C1 has an IC50 (second compound 0.0316 µM) of over 100 nM, an IC50 (second compound 0.1 µM) of over 100 nM and an IC50 (second compound 0.316 µM) of over 100 nM. It also gave an IC50 (second compound 1 µM) of over 100 nM, an IC50 (second compound 3.16 µM) of over 100 nM and an IC50 (second compound 10 µM) of over 100 nM. It also gave a viability, T/C [1] of 101%, a viability, T/C [2] of 100% and a viability, T/C [3] of 74.3%. It also gave a viability, T/C [4] of 94.3%, a viability, T/C [5] of 83.1% and a viability, T/C [6] of 105%. The viability, T/C [7] was 92.6%, the viability, T/C [8] was 117% and the viability, T/C [9] was 101%. The viability, T/C [10] was 79.5%, the viability, T/C [11] was 96.2% and the viability, T/C [12] was 83.5%. For the same compound, the viability, T/C [13] was 110%, the viability, T/C [14] was 110% and the viability, T/C [15] was 97.2%. The viability, T/C [16] was 97.1%, the viability, T/C [17] was 99.2% and the viability, T/C [18] was 114%. For the same compound, the viability, T/C [19] was 114%, the viability, T/C [20] was 106% and the viability, T/C [21] was 95.4%. The viability, T/C [22] was 106%, the viability, T/C [23] was 106% and the viability, T/C [24] was 86%. It also gave a viability, T/C [25] of 110%, a viability, T/C [26] of 141% and a viability, T/C [27] of 101%. For the same compound, the viability, T/C [28] was 140%, the viability, T/C [29] was 130% and the viability, T/C [30] was 93.5%. The viability, T/C [31] was 129%, the viability, T/C [32] was 127% and the viability, T/C [33] was 112%. It also gave a viability, T/C [34] of 103%, a viability, T/C [35] of 105% and a viability, T/C [36] of 123%.

In the case of `CC(C)n1nc(-c2ccc3oc(N)nc3c2)c2c(N)ncnc21` + CNCc1ccccc1-c1csc(C(C)Nc2nc(C)nc3cc(OC)c(OC)cc23)c1, the IC50 (second compound 0.0316 µM) is reported as 3.15 nM, the IC50 (second compound 0.1 µM) is reported as 3.11 nM and the IC50 (second compound 0.316 µM) is reported as 7.12 nM. For the same compound, the IC50 (second compound 1 µM) was 7.98 nM, the IC50 (second compound 3.16 µM) was 7.84 nM and the IC50 (second compound 10 µM) was under 0.316 nM. The viability, T/C [1] was 85.2%, the viability, T/C [2] was 69% and the viability, T/C [3] was 50.2%. It also gave a viability, T/C [4] of 44%, a viability, T/C [5] of 45.5% and a viability, T/C [6] of 44.4%. It also gave a viability, T/C [7] of 84.8%, a viability, T/C [8] of 64.6% and a viability, T/C [9] of 49.9%. It also gave a viability, T/C [10] of 45.6%, a viability, T/C [11] of 46.4% and a viability, T/C [12] of 45%. It also gave a viability, T/C [13] of 81.9%, a viability, T/C [14] of 66.5% and a viability, T/C [15] of 50.5%. For the same compound, the viability, T/C [16] was 51.9%, the viability, T/C [17] was 45.4% and the viability, T/C [18] was 37.6%. It also gave a viability, T/C [19] of 70.1%, a viability, T/C [20] of 52.5% and a viability, T/C [21] of 56.2%. The viability, T/C [22] was 50.6%, the viability, T/C [23] was 47% and the viability, T/C [24] was 37.5%. It also gave a viability, T/C [25] of 89.7%, a viability, T/C [26] of 79% and a viability, T/C [27] of 67.5%. The viability, T/C [28] was 40.7%, the viability, T/C [29] was 50.2% and the viability, T/C [30] was 36.5%. For the same compound, the viability, T/C [31] was 0.36%, the viability, T/C [32] was 0.39% and the viability, T/C [33] was 0.37%. The viability, T/C [34] was 0.37%, the viability, T/C [35] was 0.42% and the viability, T/C [36] was 0.4%.

In the case of `COc1cc(Nc2ncc3c(n2)-c2ccc(Cl)cc2C(c2c(F)cccc2OC)=NC3)ccc1C(=O)O` + CC1OCC2(CCN(c3cnc(Sc4ccnc(N)c4Cl)c(N)n3)CC2)C1N, the IC50 (second compound 0.0316 µM) is reported as over 10000 nM, the IC50 (second compound 0.1 µM) is reported as over 10000 nM and the IC50 (second compound 0.316 µM) is reported as over 10000 nM. For the same compound, the IC50 (second compound 1 µM) was 9810 nM, the IC50 (second compound 3.16 µM) was 9340 nM and the IC50 (second compound 10 µM) was 5940 nM. The viability, T/C [5] was 101%, the viability, T/C [6] was 128% and the viability, T/C [37] was 105%. For the same compound, the viability, T/C [38] was 87.7%, the viability, T/C [39] was 85.2% and the viability, T/C [40] was 60.1%. The viability, T/C [11] was 118%, the viability, T/C [12] was 105% and the viability, T/C [41] was 97.5%. The viability, T/C [42] was 87.5%, the viability, T/C [43] was 103% and the viability, T/C [44] was 56.9%. For the same compound, the viability, T/C [17] was 110%, the viability, T/C [18] was 116% and the viability, T/C [45] was 106%. It also gave a viability, T/C [46] of 101%, a viability, T/C [47] of 94.7% and a viability, T/C [48] of 49.5%. For the same compound, the viability, T/C [23] was 106%, the viability, T/C [24] was 101% and the viability, T/C [49] was 92.9%. The viability, T/C [50] was 81.7%, the viability, T/C [51] was 77.2% and the viability, T/C [52] was 47.4%. The viability, T/C [29] was 79.5%, the viability, T/C [30] was 91% and the viability, T/C [53] was 72.4%. For the same compound, the viability, T/C [54] was 88.8%, the viability, T/C [55] was 79.2% and the viability, T/C [56] was 48.2%. For the same compound, the viability, T/C [35] was 66.4%, the viability, T/C [36] was 76% and the viability, T/C [57] was 76%. For the same compound, the viability, T/C [58] was 72.6%, the viability, T/C [59] was 70.8% and the viability, T/C [60] was 32.8%.

`COC(=O)c1ccc2c(C(=Nc3ccc(N(C)C(=O)CN4CCN(C)CC4)cc3)c3ccccc3)c(O)[nH]c2c1` + COc1cc2nc(C)nc(NC(C)c3cc(N)cc(C(F)(F)F)c3)c2cc1OC1CCOC1 showed an IC50 (second compound 0.0316 µM) of 949 nM, an IC50 (second compound 0.1 µM) of 783 nM and an IC50 (second compound 0.316 µM) of 551 nM. It also gave an IC50 (second compound 1 µM) of 739 nM, an IC50 (second compound 3.16 µM) of 619 nM and an IC50 (second compound 10 µM) of 604 nM. It also gave a viability, T/C [5] of 77.5%, a viability, T/C [6] of 78.8% and a viability, T/C [37] of 72.5%. The viability, T/C [38] was 41%, the viability, T/C [39] was 29.7% and the viability, T/C [40] was 0.31%. For the same compound, the viability, T/C [11] was 78.7%, the viability, T/C [12] was 89.2% and the viability, T/C [41] was 67.3%. The viability, T/C [42] was 40.2%, the viability, T/C [43] was 24.7% and the viability, T/C [44] was 0.32%. It also gave a viability, T/C [17] of 72.2%, a viability, T/C [18] of 83.1% and a viability, T/C [45] of 52.7%. For the same compound, the viability, T/C [46] was 39.1%, the viability, T/C [47] was 22% and the viability, T/C [48] was 0.35%. For the same compound, the viability, T/C [23] was 80.1%, the viability, T/C [24] was 83.4% and the viability, T/C [49] was 73%. It also gave a viability, T/C [50] of 38.6%, a viability, T/C [51] of 19.2% and a viability, T/C [52] of 0.36%. For the same compound, the viability, T/C [29] was 59.8%, the viability, T/C [30] was 68.5% and the viability, T/C [53] was 62.5%. The viability, T/C [54] was 40.4%, the viability, T/C [55] was 17.2% and the viability, T/C [56] was 0.29%. The viability, T/C [35] was 63.2%, the viability, T/C [36] was 68% and the viability, T/C [57] was 62.7%. For the same compound, the viability, T/C [58] was 39.1%, the viability, T/C [59] was 0.52% and the viability, T/C [60] was 0.28%.

— PubChem BioAssay AID2060912 (Molecular Pharmacology Branch, DTP, NCI, 2025)
